Results taken from the NIST ThermoML archive (doi:10.1016/j.fluid.2009.04.009).
± gives the expanded uncertainty stated by the source.

Assay: xn = mol fraction of the nth substance listed
Settings: Liquid, Single crystal variable path ultrasonic interferometer operating at 2 MHz

Compound: CO [methanol] + CN(C)C=O
- speed of sound (303 K, Frequency=2 MHz / Mass density=771.9 kg/m3, x2 = 0): 1089 ± 0.5 m/s
- speed of sound (308 K, Frequency=2 MHz / Mass density=764.7 kg/m3, x2 = 0): 1069.6 ± 0.4 m/s
- speed of sound (313 K, Frequency=2 MHz / Mass density=757.4 kg/m3, x2 = 0): 1057.2 ± 0.4 m/s
- speed of sound (318 K, Frequency=2 MHz / Mass density=750 kg/m3, x2 = 0): 1033.2 ± 0.5 m/s
- speed of sound (323 K, Frequency=2 MHz / Mass density=718.6 kg/m3, x2 = 0): 1008 ± 0.3 m/s

Compound: CN(C)C=O [dimethylformamide] + CO
- speed of sound (303 K, Frequency=2 MHz / Mass density=801.17 kg/m3, x1 = 0.4): 1201.2 ± 0.4 m/s
- speed of sound (303 K, Frequency=2 MHz / Mass density=818.7 kg/m3, x1 = 0.2): 1133.8 ± 0.3 m/s
- speed of sound (303 K, Frequency=2 MHz / Mass density=853.8 kg/m3, x1 = 0.6): 1249.2 ± 0.3 m/s
- speed of sound (303 K, Frequency=2 MHz / Mass density=888.88 kg/m3, x1 = 0.8): 1339.4 ± 0.5 m/s
- speed of sound (303 K, Frequency=2 MHz / Mass density=953.21 kg/m3, x1 = 1): 1469.8 ± 0.8 m/s
- speed of sound (308 K, Frequency=2 MHz / Mass density=794.11 kg/m3, x1 = 0.4): 1187.4 ± 0.4 m/s
- speed of sound (308 K, Frequency=2 MHz / Mass density=811.76 kg/m3, x1 = 0.2): 1126.8 ± 0.3 m/s
- speed of sound (308 K, Frequency=2 MHz / Mass density=852.94 kg/m3, x1 = 0.6): 1243.4 ± 0.4 m/s
- speed of sound (308 K, Frequency=2 MHz / Mass density=888.23 kg/m3, x1 = 0.8): 1320 ± 0.3 m/s
- speed of sound (308 K, Frequency=2 MHz / Mass density=952.94 kg/m3, x1 = 1): 1433.2 ± 0.6 m/s
- speed of sound (313 K, Frequency=2 MHz / Mass density=786.98 kg/m3, x1 = 0.4): 1169.2 ± 0.4 m/s
- speed of sound (313 K, Frequency=2 MHz / Mass density=798.81 kg/m3, x1 = 0.2): 1110.8 ± 0.4 m/s
- speed of sound (313 K, Frequency=2 MHz / Mass density=846.15 kg/m3, x1 = 0.6): 1219.4 ± 0.5 m/s
- speed of sound (313 K, Frequency=2 MHz / Mass density=881.65 kg/m3, x1 = 0.8): 1313.2 ± 0.4 m/s
- speed of sound (313 K, Frequency=2 MHz / Mass density=952.66 kg/m3, x1 = 1): 1418 ± 0.4 m/s
- speed of sound (318 K, Frequency=2 MHz / Mass density=773.8 kg/m3, x1 = 0.4): 1152 ± 0.4 m/s
- speed of sound (318 K, Frequency=2 MHz / Mass density=785.71 kg/m3, x1 = 0.2): 1097.7 ± 0.2 m/s
- speed of sound (318 K, Frequency=2 MHz / Mass density=833.33 kg/m3, x1 = 0.6): 1208 ± 0.3 m/s
- speed of sound (318 K, Frequency=2 MHz / Mass density=875 kg/m3, x1 = 0.8): 1275.4 ± 0.5 m/s
- speed of sound (318 K, Frequency=2 MHz / Mass density=952.38 kg/m3, x1 = 1): 1402.2 ± 0.5 m/s
- speed of sound (323 K, Frequency=2 MHz / Mass density=754.49 kg/m3, x1 = 0.4): 1136 ± 0.3 m/s
- speed of sound (323 K, Frequency=2 MHz / Mass density=778.44 kg/m3, x1 = 0.2): 1095.4 ± 0.3 m/s
- speed of sound (323 K, Frequency=2 MHz / Mass density=803.35 kg/m3, x1 = 0.6): 1189 ± 0.3 m/s
- speed of sound (323 K, Frequency=2 MHz / Mass density=868.26 kg/m3, x1 = 0.8): 1257.2 ± 0.4 m/s
- speed of sound (323 K, Frequency=2 MHz / Mass density=952.09 kg/m3, x1 = 1): 1374.8 ± 0.6 m/s
